This passage reports T/C results from PubChem BioAssay AID248 (DTP/NCI, 2004).

Several values for one entry are separate records, joined by “and”; a condition that tells them apart may be missing. Equal values may be shown once. Toxic doses and inconclusive results are not listed.

In the assay the test system is L1210 leukemia ip in BDF1 mice, survival T/C. Briefly: NCI In Vivo Anticancer Drug Screen. Data for tumor model L1210 Leukemia (intraperitoneal) in B6D2F1 (BDF1) mice. Conditions: endpoint: mean survival time, higher = longer survival. In a few lines: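 Read-out is survival time, reported as the treated-group measurement over the vehicle-control measurement.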
Setting [1] is: dose: 100.0 mg/kg/injection, schedule: Q04DX003 (ip), vehicle: Klucel (hydroxypropylcellulose) (HPC).
[2] abbreviates: dose: 200.0 mg/kg/injection, schedule: Q04DX003 (ip), vehicle: Klucel (hydroxypropylcellulose) (HPC).
The mark [3] stands for this setting: dose: 100.0 mg/kg/injection, schedule: Q04DX003 (ip), vehicle: saline with Tween-80.
Setting [4] is: dose: 200.0 mg/kg/injection, schedule: Q04DX003 (ip), vehicle: saline with Tween-80.
[5] abbreviates: dose: 400.0 mg/kg/injection, schedule: Q04DX003 (ip), vehicle: saline with Tween-80.
[6] abbreviates: dose: 100.0 mg/kg/injection, schedule: Q01DX009 (ip), vehicle: Klucel (hydroxypropylcellulose) (HPC).
The mark [7] stands for this setting: dose: 100.0 mg/kg/injection, schedule: Q01DX009 (ip), vehicle: saline with Tween-80.
Setting [8] is: dose: 200.0 mg/kg/injection, schedule: Q01DX009 (ip), vehicle: saline with Tween-80.
The mark [9] stands for this setting: dose: 400.0 mg/kg/injection, schedule: Q01DX009 (ip), vehicle: saline with Tween-80.
Setting [10] is: dose: 400.0 mg/kg/injection, schedule: Q04DX003 (ip), vehicle: Klucel (hydroxypropylcellulose) (HPC).

With `Cc1c(CO)[nH]c(=S)[nH]c1=O`, the T/C is, setting by setting: (dose: 50.0 mg/kg/injection, schedule: Q01DX001 (ip), vehicle: Klucel (hydroxypropylcellulose) (HPC)) 103 % of control; (dose: 50.0 mg/kg/injection, schedule: Q04DX003 (ip), vehicle: Klucel (hydroxypropylcellulose) (HPC)) 100 % of control; (dose: 100.0 mg/kg/injection, schedule: Q01DX001 (ip), vehicle: Klucel (hydroxypropylcellulose) (HPC)) 95 % of control; under setting [1], 92 % of control; (dose: 200.0 mg/kg/injection, schedule: Q01DX001 (ip), vehicle: Klucel (hydroxypropylcellulose) (HPC)) 97 % of control; under setting [2], 89 % of control.

For `CCOc1cc(-c2nc3ccccc3s2)ccc1O`, the T/C is, setting by setting: under setting [3], 96 % of control; under setting [4], 101 % of control; under setting [5], 96 % of control.

With `O=C(Nc1ccc(NC(=O)Nc2cccc(C3=NCCCN3)c2)cc1)Nc1ccc(C2=NCCCN2)cc1`, the T/C (dose: 1.25 mg/kg/injection, schedule: Q01DX Z (ip), vehicle: carboxymethylcellulose (CMC)) was 102 % of control; the T/C (dose: 2.5 mg/kg/injection, schedule: Q01DX Z (ip), vehicle: carboxymethylcellulose (CMC)) was 109 % of control; the T/C (dose: 5.0 mg/kg/injection, schedule: Q01DX Z (ip), vehicle: carboxymethylcellulose (CMC)) is 113 % of control; the T/C (dose: 8.5 mg/kg/injection, schedule: Q01DX Z (ip), vehicle: carboxymethylcellulose (CMC)) is 170 % of control; the T/C (dose: 10.0 mg/kg/injection, schedule: Q01DX Z (ip), vehicle: carboxymethylcellulose (CMC)) was 167 % of control; the T/C (dose: 15.0 mg/kg/injection, schedule: Q01DX Z (ip), vehicle: carboxymethylcellulose (CMC)) is 157 % of control. Besides, the T/C is, setting by setting: (dose: 17.0 mg/kg/injection, schedule: Q01DX Z (ip), vehicle: carboxymethylcellulose (CMC)) 151 % of control; (dose: 50.0 mg/kg/injection, schedule: Q01DX Z (oral), vehicle: carboxymethylcellulose (CMC)) 102 % of control; (dose: 100.0 mg/kg/injection, schedule: Q01DX Z (oral), vehicle: carboxymethylcellulose (CMC)) 107 % of control; (dose: 200.0 mg/kg/injection, schedule: Q01DX Z (oral), vehicle: carboxymethylcellulose (CMC)) 104 % of control; (dose: 400.0 mg/kg/injection, schedule: Q01DX Z (oral), vehicle: carboxymethylcellulose (CMC)) 102 % of control.

For the molecule `CC(C)(CCl)c1ccc(C(C)(C)CCl)cc1`, the T/C was 104 % of control (dose: 50.0 mg/kg/injection, schedule: Q04DX002 (ip), vehicle: Klucel (hydroxypropylcellulose) (HPC)); 93 % of control (dose: 100.0 mg/kg/injection, schedule: Q04DX002 (ip), vehicle: Klucel (hydroxypropylcellulose) (HPC)); 93 % of control (dose: 200.0 mg/kg/injection, schedule: Q04DX002 (ip), vehicle: Klucel (hydroxypropylcellulose) (HPC)).

Regarding `C/C(CC(=O)Nc1ccc(Cc2ccc(Cl)cc2)cc1)=N/Nc1ccc([N+](=O)[O-])cc1[N+](=O)[O-]`, the T/C (dose: 100.0 mg/kg/injection, schedule: Q01DX001 (ip), vehicle: saline) was 94 % of control and the T/C (dose: 200.0 mg/kg/injection, schedule: Q01DX001 (ip), vehicle: saline) is 101 % of control.

For `FC1(F)C=C(c2ccccc2)C1(Cl)Cl`, the T/C is 102 % of control (dose: 25.0 mg/kg/injection, schedule: Q01DX009 (ip), vehicle: Klucel (hydroxypropylcellulose) (HPC)); 100 % of control (dose: 50.0 mg/kg/injection, schedule: Q01DX009 (ip), vehicle: Klucel (hydroxypropylcellulose) (HPC)); 92 % of control and 98 % of control under setting [6]; 107 % of control under setting [1]; 113 % of control under setting [2].

`CCCCSCCOC(=O)C1C2CCC(O2)C1C(=O)O` (stereo not given): the T/C is 95 % of control (dose: 12.5 mg/kg/injection, schedule: Q04DX003 (ip), vehicle: Klucel (hydroxypropylcellulose) (HPC)) and 96 % of control (dose: 25.0 mg/kg/injection, schedule: Q04DX003 (ip), vehicle: Klucel (hydroxypropylcellulose) (HPC)).

As to `C(=N\Nc1nn[nH]n1)/c1ccccc1`, the T/C is, setting by setting: under setting [7], 202 % of control; under setting [3], 95 % of control; under setting [4], 97 % of control; under setting [5], 103 % of control.

For `COc1ccc(C(=O)P(=O)(OC)OC)cc1`, the T/C by setting is: under setting [3], 106 % of control; under setting [4], 104 % of control; under setting [5], 98 % of control.

Consider `O=C(Nc1cccc(Cl)c1)c1ccc2ccccc2c1O`, for which the T/C runs as follows: (dose: 100.0 mg/kg/injection, schedule: Q01DX001 (ip), vehicle: saline with Tween-80) 97 % of control; under setting [7], 106 % of control; under setting [3], 98 % of control; (dose: 200.0 mg/kg/injection, schedule: Q01DX001 (ip), vehicle: saline with Tween-80) 93 % of control; under setting [8], 98 % of control; under setting [4], 96 % of control. The T/C is 97 % of control (dose: 400.0 mg/kg/injection, schedule: Q01DX001 (ip), vehicle: saline with Tween-80); 101 % of control under setting [9]; 96 % of control under setting [5].

`CN(N)C(=N)N`: the T/C runs as follows: (dose: 100.0 mg/kg/injection, schedule: Q01DX009 (ip), vehicle: saline) 102 % of control; (dose: 200.0 mg/kg/injection, schedule: Q01DX009 (ip), vehicle: saline) 101 % of control; (dose: 400.0 mg/kg/injection, schedule: Q01DX009 (ip), vehicle: saline) 96 % of control.

With `Cc1cccc(NC(=O)NCCCl)c1Cl`, the T/C runs as follows: under setting [6], 97 % of control; under setting [1], 97 % of control; (dose: 200.0 mg/kg/injection, schedule: Q01DX009 (ip), vehicle: Klucel (hydroxypropylcellulose) (HPC)) 97 % of control; under setting [2], 94 % of control; (dose: 400.0 mg/kg/injection, schedule: Q01DX009 (ip), vehicle: Klucel (hydroxypropylcellulose) (HPC)) 100 % of control; under setting [10], 94 % of control.

Consider `O=P(NC1CCCCC1)(OCc1ccccc1)N(CCCl)CCCl` (stereo not given), for which the T/C runs as follows: (dose: 10.0 mg/kg/injection, schedule: Q01DX Z (ip), vehicle: water) 98 % of control; (dose: 20.0 mg/kg/injection, schedule: Q01DX Z (ip), vehicle: water) 91 % of control; (dose: 40.0 mg/kg/injection, schedule: Q01DX Z (ip), vehicle: water) 96 % of control; (dose: 80.0 mg/kg/injection, schedule: Q01DX009 (ip), vehicle: water) 93 % of control; (dose: 160.0 mg/kg/injection, schedule: Q01DX009 (ip), vehicle: water) 89 % of control.

As for `CCCCCCOC(=O)Nc1cccc2ccccc12`, the T/C reads like this: (dose: 75.0 mg/kg/injection, schedule: Q01DX009 (ip), vehicle: saline) 94 % of control; (dose: 150.0 mg/kg/injection, schedule: Q01DX009 (ip), vehicle: saline) 99 % of control; (dose: 300.0 mg/kg/injection, schedule: Q01DX009 (ip), vehicle: saline) 96 % of control.

Regarding `O=C(CC(O)(C(F)(F)F)C(F)(F)F)c1c2ccccc2cc2ccccc12`, the T/C runs as follows: under setting [7], 98 % of control; under setting [8], 109 % of control; under setting [9], 98 % of control.

Turning to `CC(C)=CCc1ccc(O)cc1`, the T/C by setting is: (dose: 100.0 mg/kg/injection, schedule: Q01DX009 (ip), vehicle: saline + alcohol) 95 % of control; under setting [1], 96 % of control; under setting [2], 100 % of control; under setting [10], 95 % of control.

On to `CCOC(=O)NCNC(=O)OCC`, for which the T/C (dose: 100.0 mg/kg/injection, schedule: Q01DX009 (ip), vehicle: saline sonified) is 104 % of control; the T/C (dose: 100.0 mg/kg/injection, schedule: Q04DX003 (ip), vehicle: saline sonified) was 100 % of control; the T/C (dose: 200.0 mg/kg/injection, schedule: Q01DX009 (ip), vehicle: saline sonified) was 95 % of control; the T/C (dose: 200.0 mg/kg/injection, schedule: Q04DX003 (ip), vehicle: saline sonified) was 97 % of control; the T/C (dose: 400.0 mg/kg/injection, schedule: Q01DX009 (ip), vehicle: saline sonified) is 91 % of control; the T/C (dose: 400.0 mg/kg/injection, schedule: Q04DX003 (ip), vehicle: saline sonified) was 94 % of control.

For `CCCCCCCCCCN1C(=O)C(Cl)=C(Cl)C1=O`, the T/C by setting is: (dose: 25.0 mg/kg/injection, schedule: Q04DX003 (ip), vehicle: saline with Tween-80) 103 % of control; (dose: 50.0 mg/kg/injection, schedule: Q04DX003 (ip), vehicle: saline with Tween-80) 94 % of control.
